Laboratory results as given in patent publication US9676721B2, “Compounds and compositions for the inhibition of NAMPT” (FORMA TM, LLC, priority 2010, dated 2017).

Legend:
A2780 cells = experiment: In-Vitro Cell Proliferation Assay (SRB); format: cell-based
Experimental: In-Vitro Cell Proliferation Assay […] After overnight incubation at 37° C. and 5% CO2, the compound titrations were performed in a separate dilution plate by serially diluting the compounds in DMSO to make a 1000× stock. The compounds were then further diluted to 10× final concentration in culture media, whereupon 20 μL of each dilution was added to the plated cells with controls (e.g. DMSO and blank) to make a final volume of 200 μL. The final DMSO concentration in each well was 0.1%. The plates were then incubated for 72 hours at 37° C. in a 5% CO2 incubator. The number of viable cells was then assessed using sulforhodamine B (SRB) assay. Cells were fixed at 4° C. for 1 hour with the addition of 50 μL 30% trichloroacetic acid (TCA) to make a final concentration of 6% TCA. The plates were washed four times with H2O and allowed to dry for at least 1 hour, whereupon 100 μL of a […] SRB in 1% acetic acid solution was added to each well and incubated at room temperature for at least 30 minutes. The plates were then washed three times with 1% acetic acid, dried, and treated with 100 μL of 10 mM Tris-Base solution. The plates were then read in a microplate reader at an absorbance of 570 nm. Background was generated on a separate plate with media only. Method for Determining % Inhibition First, the signals from the background plate are averaged, then the background was subtracted from the test plates. […] Formula for Determining IC50 Values: […] Specificity of Cytotoxicity. Inhibition of NAMPT could be reversed by the addition of NAM or NMN. The specificity of the compounds were determined via cell viability assay in the presence of the compound and either NAM or NMN. Percent inhibitions were determined using the method given above.

NAMPT = NAMPT (Homo sapiens (Human), UniProt P43490); experiment: Biochemical Inhibition Assay (NAMPT enzymatic reaction, NMN by mass spectrometry); settings: recombinant His-tagged NAMPT 33 nM, 1 μM NAM, 30 minutes; read-out: Biochem IC50
Experimental: Biochemical Inhibition Assay NAMPT Protein Purification Recombinant His-tagged NAMPT was produced in E. coli cells, purified over a Ni column, and further purified over a size-exclusion column by XTAL Biostructures. The NAMPT Enzymatic Reaction The NAMPT enzymatic reactions were carried out in Buffer A (50 mM Hepes pH 7.5, 50 mM NaCl, 5 mM MgCl2, and 1 mM THP) in 96-well V-bottom plates. The compound titrations were performed in a separate dilution plate by serially diluting the compounds in DMSO to make a 100× stock. […] Background and signal strength was determined by addition (or non-addition) of a serial dilution of NMN to a pre-quenched enzyme and cofactor mix. Quantification of NMN A mass spectrometry-based assay was used to measure the NAMPT reaction product (NMN) and the internal control (L-Cystathionine). NMN and L-Cystathionine were detected using the services of Biocius Lifesciences with the RapidFire system. In short, the NMN and L-Cystathionine are bound to a graphitic carbon cartridge in 0.1% formic acid, eluted in 30% acetonitrile buffer, and injected into a Sciex 4000 mass spectrometer. The components of the sample were ionized with electrospray ionization and the positive ions were detected. […] The fragments are quantified and the analyzed by the following method. % Inhibitions are Determined Using this Method. First the NMN signal is normalized to the L-Cystathionine signal by dividing the NMN signal by the L-Cystathionine signal for each well. The signal from the background wells are averaged and subtracted from the test plates. […] IC50s are Determined Using Excel and this Formula.

Chain of NAMPT (P43490 whole entry): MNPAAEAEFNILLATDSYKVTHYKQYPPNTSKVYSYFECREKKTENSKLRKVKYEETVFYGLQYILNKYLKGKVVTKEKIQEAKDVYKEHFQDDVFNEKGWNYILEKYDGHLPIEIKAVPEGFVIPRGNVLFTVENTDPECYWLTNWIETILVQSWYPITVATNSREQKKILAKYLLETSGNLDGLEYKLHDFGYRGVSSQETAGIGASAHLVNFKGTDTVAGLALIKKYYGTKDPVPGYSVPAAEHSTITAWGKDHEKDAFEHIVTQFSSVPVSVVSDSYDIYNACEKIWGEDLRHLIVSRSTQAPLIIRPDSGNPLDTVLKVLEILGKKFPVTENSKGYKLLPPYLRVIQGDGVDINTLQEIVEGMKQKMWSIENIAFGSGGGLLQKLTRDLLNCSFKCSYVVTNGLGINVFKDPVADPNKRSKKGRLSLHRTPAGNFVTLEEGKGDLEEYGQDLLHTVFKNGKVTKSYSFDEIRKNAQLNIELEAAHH

| IC50 (A2780 cells; Homo sapiens, A2780, 72 h) [nM] | IC50 (NAMPT) [nM] | SMILES | IC50 (A2780 cells; 72 hours) [nM] |
| --- | --- | --- | --- |
| 5.7 | 3.2 | CC(C)Oc1cccc(S(=O)(=O)c2ccc(CNC(=NC#N)Nc3ccncc3)cc2)c1 [2-cyano-1-[(4-{[3-(propan-2-yloxy)benzene]sulfonyl}phenyl)methyl]-3-(pyridin-4-yl)guanidine] | – |
| 4.6 | 5.2 | Cc1cccc(S(=O)(=O)c2ccc(CNC(=NC#N)Nc3ccncc3)cc2)c1 [2-cyano-1-({4-[(3-methylbenzene)sulfonyl]phenyl}methyl)-3-(pyridin-4-yl)guanidine] | – |
| 2.9 | 3.5 | N#CN=C(NCc1ccc(S(=O)(=O)c2cccc(-n3cccn3)c2)cc1)Nc1ccncc1 [2-cyano-1-[(4-{[3-(1H-pyrazol-1-yl)benzene]sulfonyl}phenyl)methyl]-3-(pyridin-4-yl)guanidine] | – |
| 3.4 | 6.8 | COc1ccc(S(=O)(=O)c2ccc(CNC(=NC#N)Nc3ccncc3)cc2)c(OC)n1 [2-cyano-1-{[4-(2,6-dimethoxypyridine-3-sulfonyl)phenyl]methyl}-3-(pyridin-4-yl)guanidine] | – |
| 12 | 2 | N#C/N=C(\NCc1ccc(S(=O)(=O)c2ccccc2)cc1)Nc1ccncc1 [3-{[4-(benzenesulfonyl)phenyl]methyl}-2-cyano-1-(pyridin-4-yl)guanidine] | – |
| 2 | 1 | N#CN=C(NCc1ccc(S(=O)(=O)c2cc(F)cc(F)c2)cc1)Nc1ccncc1 [2-cyano-1-({4-[(3,5-difluorobenzene)sulfonyl]phenyl}methyl)-3-(pyridin-4-yl)guanidine] | – |
| 6.6 | 6.2 | N#CN=C(NCc1ccc(S(=O)(=O)c2ccc3ncccc3c2)cc1)Nc1ccncc1 [2-cyano-3-(pyridin-4-yl)-1-{[4-(quinoline-6-sulfonyl)phenyl]methyl}guanidine] | – |
| 5.9 | 7.2 | COCc1cccc(S(=O)(=O)c2ccc(CNC(=NC#N)Nc3ccncc3)cc2)c1 [2-cyano-1-[(4-{[3-(methoxymethyl)benzene]sulfonyl}phenyl)methyl]-3-(pyridin-4-yl)guanidine] | – |
| 2.8 | 3.8 | CC(C)c1ccc(S(=O)(=O)c2ccc(CNC(=NC#N)Nc3ccncc3)cc2)cc1 [2-cyano-1-[(4-{[4-(propan-2-yl)benzene]sulfonyl}phenyl)methyl]-3-(pyridin-4-yl)guanidine] | – |
| 1.6 | 1 | Cn1ncc2ccc(S(=O)(=O)c3ccc(CN/C(=N\C#N)Nc4ccncc4)cc3)cc21 [2-cyano-1-{[4-(1-methyl-1H-indazole-6-sulfonyl)phenyl]methyl}-3-(pyridin-4-yl)guanidine] | – |
| 1.5 | 2.4 | Cc1ccc(S(=O)(=O)c2ccc(CNC(=NC#N)Nc3ccncc3)cc2)c(C)c1 [2-cyano-1-({4-[(2,4-dimethylbenzene)sulfonyl]phenyl}methyl)-3-(pyridin-4-yl)guanidine] | – |
| 1.8 | 1 | N#CN=C(NCc1ccc(S(=O)(=O)c2cnc3ccccc3c2)cc1)Nc1ccncc1 [2-cyano-3-(pyridin-4-yl)-1-{[4-(quinoline-3-sulfonyl)phenyl]methyl}guanidine] | – |
| 1.6 | 3.3 | N#CN=C(NCc1ccc(S(=O)(=O)c2cc(Cl)cc(C(F)(F)F)c2)cc1)Nc1ccncc1 [1-[(4-{[3-chloro-5-(trifluoromethyl)benzene]sulfonyl}phenyl)methyl]-2-cyano-3-(pyridin-4-yl)guanidine] | – |
| 1.5 | 6 | N#CN=C(NCc1ccc(S(=O)(=O)c2cc(F)cc(C(F)(F)F)c2)cc1)Nc1ccncc1 [2-cyano-1-[(4-{[3-fluoro-5-(trifluoromethyl)benzene]sulfonyl}phenyl)methyl]-3-(pyridin-4-yl)guanidine] | – |
| 54.2 | 17.7 | CCN(CC)C(=O)c1ccc(F)c(S(=O)(=O)c2ccc(CNC(=NC#N)Nc3ccncc3)cc2)c1 [3-[(4-{[2-cyano-3-(pyridin-4-yl)carbamimidamido]methyl}benzene)sulfonyl]-N,N-diethyl-4-fluorobenzamide] | – |
| 326 | 266 | N#C/N=C(\NCc1ccc(S(=O)(=O)c2ccccc2)cc1)NCc1ccn2ccnc2c1 [2-cyano-1-(imidazo[1,2-a]pyridin-7-ylmethyl)-3-(4-(phenylsulfonyl)benzyl)guanidine] | – |
| 7.5 | 4.8 | Cc1ncccc1S(=O)(=O)c1ccc(CNC(=NC#N)Nc2ccncc2)cc1 [2-cyano-1-{[4-(2-methylpyridine-3-sulfonyl)phenyl]methyl}-3-(pyridin-4-yl)guanidine] | – |
| 20 | 2.2 | N#CN=C(NCc1ccc(S(=O)(=O)c2cccc(C(=O)NC3CC3)c2)cc1)Nc1ccncc1 [3-[(4-{[2-cyano-3-(pyridin-4-yl)carbamimidamido]methyl}benzene)sulfonyl]-N-cyclopropylbenzamide] | – |
| 4.1 | 3.4 | N#CN=C(NCc1ccc(S(=O)(=O)c2ccnc(N3CCOCC3)c2Cl)cc1)Nc1ccncc1 [1-({4-[3-chloro-2-(morpholin-4-yl)pyridine-4-sulfonyl]phenyl}methyl)-2-cyano-3-(pyridin-4-yl)guanidine] | – |
| 3.7 | 3.6 | N#CN=C(NCc1ccc(S(=O)(=O)c2ccc(Cl)cc2)cc1)Nc1ccncc1 [1-({4-[(4-chlorobenzene)sulfonyl]phenyl}methyl)-2-cyano-3-(pyridin-4-yl)guanidine] | – |
| 27.8 | 6.5 | CNC(=O)c1ccc(S(=O)(=O)c2ccc(CNC(=NC#N)Nc3ccncc3)cc2)cn1 [5-[(4-{[2-cyano-3-(pyridin-4-yl)carbamimidamido]methyl}benzene)sulfonyl]-N-methylpyridine-2-carboxamide] | – |
| 3.9 | 3.1 | Cc1cc(S(=O)(=O)c2ccc(CNC(=NC#N)Nc3ccncc3)cc2)ccc1F [2-cyano-1-({4-[(4-fluoro-3-methylbenzene)sulfonyl]phenyl}methyl)-3-(pyridin-4-yl)guanidine] | – |
| 13.7 | 5.9 | N#CN=C(NCc1ccc(S(=O)(=O)c2ccc(C#N)cc2)cc1)Nc1ccncc1 [2-cyano-1-({4-[(4-cyanobenzene)sulfonyl]phenyl}methyl)-3-(pyridin-4-yl)guanidine] | – |
| 8.5 | 2.3 | Cc1ccncc1S(=O)(=O)c1ccc(CNC(=NC#N)Nc2ccncc2)cc1 [2-cyano-1-{[4-(4-methylpyridine-3-sulfonyl)phenyl]methyl}-3-(pyridin-4-yl)guanidine] | – |
| 1.1 | 2.9 | CC(C)c1cccc(S(=O)(=O)c2ccc(CNC(=NC#N)Nc3ccncc3)cc2)c1 [2-cyano-1-[(4-{[3-(propan-2-yl)benzene]sulfonyl}phenyl)methyl]-3-(pyridin-4-yl)guanidine] | – |
| 9.1 | 4.3 | COc1cncc(S(=O)(=O)c2ccc(CNC(=NC#N)Nc3ccncc3)cc2)c1 [2-cyano-1-{[4-(5-methoxypyridine-3-sulfonyl)phenyl]methyl}-3-(pyridin-4-yl)guanidine] | – |
| 6 | 5.7 | COc1cc(C(F)(F)F)ccc1S(=O)(=O)c1ccc(CNC(=NC#N)Nc2ccncc2)cc1 [2-cyano-1-[(4-{[2-methoxy-4-(trifluoromethyl)benzene]sulfonyl}phenyl)methyl]-3-(pyridin-4-yl)guanidine] | – |
| 2.6 | 2.5 | Cc1ccc(S(=O)(=O)c2ccc(CN/C(=N\C#N)Nc3ccncc3)cc2)cc1 [2-cyano-1-({4-[(4-methylbenzene)sulfonyl]phenyl}methyl)-3-(pyridin-4-yl)guanidine] | – |

| SMILES | IC50 (A2780 cells; Homo sapiens, A2780, 72 h) [nM] | IC50 (NAMPT) [nM] | IC50 (A2780 cells; 72 hours) [nM] |
| --- | --- | --- | --- |
| CCS(=O)(=O)c1cccc(S(=O)(=O)c2ccc(CNC(=NC#N)Nc3ccncc3)cc2)c1 [2-cyano-1-[(4-{[3-(ethanesulfonyl)benzene]sulfonyl}phenyl)methyl]-3-(pyridin-4-yl)guanidine] | – | 1.8 | 13.3 |
